From patent publication US10183944B2 (Asana Biosciences, LLC, priority 2011, dated 2019) come the findings set out here.

Structures can show the parent of a compound that is named as a salt. Where two headings read alike, the source gives them in different places.

In one experiment the target is JAK2 (Homo sapiens (Human), UniProt O60674). The experiment can be described thus: Inhibition of enzymatic JAK2 kinase activity (TR-FRET). To be noted: read-out: IC50 JAK. In kind it is biochemical. The procedure, abridged:
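TR-FRET read-out (Eu antibody donor, Ulight poly Glu-Tyr acceptor, 665/615 nm ratio) after a 60 min RT kinase reaction with ATP, begun following 30 min compound–enzyme preincubation. Stopped by EDTA; inhibition expressed as 100 minus % activity of positive control.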
On the technique in general: Time-resolved FRET reads energy transfer from a long-lived donor to a nearby acceptor.

The target of experiment [1] is Syk (356-635 amino acids) catalytic domain (Homo sapiens (Human), UniProt P43405). The experiment can be described thus: Inhibition of enzymatic Syk kinase activity (radiometric). The experiment is classed as biochemical. The following applies: read-out: IC50 Syk. Put shortly:
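Radiometric filter-binding format: 32P transfer from γ-32P-ATP onto pG4T, scintillation-counted after acid washes of P81 paper. Syk kinase domain (356-635), 0.035–7.5 ng per reaction, was exposed to compound for 30 minutes at room temperature before a 10-minute, 30° C. reaction with ATP (100 μM stock). Inhibition derived from counts with versus without compound.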

The next experiment concerns RBL2H3 cells. As to the kind of experiment: Degranulation assay: β-hexosaminidase release during immune complex mediated degranulation. The experiment is classed as cell-based, rat. To be noted: for inhibition at 1 µM: read-out: Degranulation % inhibition at 1 μM; for EC50: read-out: Degranulation EC50. The procedure, abridged:
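Fluorometric β-NAG read-out (Ex 355, Em 460 nm; 30 min, RT) of supernatant after DNP-BSA stimulation (45–60 min) of anti-DNP IgE-sensitized RBL2H3 cells. Compounds (0.5% DMSO) added 15 min before antigen; degranulation expressed as % β-hexosaminidase release or inhibition.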

Where [2] appears, read: Rattus norvegicus, RBL-2H3, 1 μM, Assay Protocol B (96 well format).
Where [3] appears, read: Rattus norvegicus, RBL-2H3, Assay Protocol B (96 well format).

JAK2, sequence (O60674 808-1132): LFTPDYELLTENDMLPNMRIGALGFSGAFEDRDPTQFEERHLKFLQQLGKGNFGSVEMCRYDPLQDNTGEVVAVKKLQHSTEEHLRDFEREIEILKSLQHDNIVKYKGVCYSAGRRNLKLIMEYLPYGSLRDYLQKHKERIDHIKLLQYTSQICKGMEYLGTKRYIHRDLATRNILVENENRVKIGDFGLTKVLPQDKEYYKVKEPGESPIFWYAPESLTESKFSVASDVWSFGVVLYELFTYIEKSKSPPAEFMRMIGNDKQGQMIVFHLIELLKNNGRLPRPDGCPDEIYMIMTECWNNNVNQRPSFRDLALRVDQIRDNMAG

Take `CN(C)CCN1CCN(c2ccc(Nc3nc(N4CCCCCC4)nc4cn[nH]c(=O)c34)cc2)CC1` [Example 267, 2-(azepan-1-yl)-4-((4-(4-(2-(dimethylamino)ethyl)piperazin-1-yl)phenyl)amino)pyrimido[4,5-d]pyridazin-5(6H)-one]: the IC50 (at JAK2; in experiment [1]) was less than 10 nM in each case. In addition, in the experiment on RBL2H3 cells (setting [2]), the inhibition at 1 µM was 90%. For the same compound, in the experiment with RBL2H3 cells (setting [3]), the EC50 was 21 nM.
`CCOc1nc(Nc2ccc(CN3CCNCC3)cc2)c2c(=O)[nH]ncc2n1` [Example 50, 2-ethoxy-4-((4-(piperazin-1-ylmethyl)phenyl)amino)pyrimido[4,5-d]pyridazin-5(6H)-one hydrochloride]: the concentration for half-maximal inhibition (IC50) on JAK2 was greater than 100 nM; in experiment [1] it was less than 10 nM. Also, the inhibition at 1 µM with RBL2H3 cells (setting [2]) was found to be 49%.
Turning to `N=Cc1nc(N2CCCCCC2)nc(Nc2ccc(N3CCCC(CC(=O)O)C3)cc2)c1C(N)=O` (stereo not shown) [Example 232], the IC50 on JAK2 was less than 10 nM; in experiment [1] it was less than 50 nM. Moreover, the “Degranulation % inhibition at 1 μM” value in the experiment on RBL2H3 cells (1 μM, Assay Protocol B (96 well format)) is reported as 0%. The EC50 with RBL2H3 cells (Assay Protocol B (96 well format)) is 619 nM.
Take `CCN1CCN(c2ccc(Nc3nc(-c4ccccc4)nc4cn[nH]c(=O)c34)cc2)CC1` [Example 5, 4-(4-(4-ethylpiperazin-1-yl)phenylamino)-2-phenylpyrimido[4,5-d]pyridazin-5(6H)-one]: the IC50 at JAK2 is less than 50 nM; in experiment [1], less than 10 nM. In addition, the inhibition at 1 µM in the experiment with RBL2H3 cells (Rattus norvegicus, RBL-2H3, 1 μM, Assay Protocol A (24 well format)) was determined as 100%. The EC50 in the experiment on RBL2H3 cells (Rattus norvegicus, RBL-2H3, Assay Protocol A (24 well format)) turned out to be 39 nM.
As for `O=c1[nH]ncc2nc(N3CCCCCC3)nc(Nc3ccc4[nH]nnc4c3)c12` [Example 339, 4-((1H-benzo[d][1,2,3]triazol-5-yl)amino)-2-(azepan-1-yl)pyrimido[4,5-d]pyridazin-5(6H)-one], the half-inhibitory concentration (IC50) was less than 50 nM on JAK2 and less than 10 nM in experiment [1]. In the experiment on RBL2H3 cells (setting [2]), the inhibition at 1 µM worked out at 83%. The EC50 in the experiment on RBL2H3 cells (setting [3]) came to 31 nM.
Regarding `O=C(O)CC1CCN(CCOc2ccc(Nc3nc(N4CCCCCC4)nc4cn[nH]c(=O)c34)cc2)CC1` [Example 96, 2-(1-(2-(4-((2-(azepan-1-yl)-5-oxo-5,6-dihydropyrimido[4,5-d]pyridazin-4-yl)amino)phenoxy)ethyl)piperidin-4-yl) acetic acid], the IC50 (at JAK2; in experiment [1]) was less than 10 nM each time. Further, in the experiment on RBL2H3 cells (setting [2]), the inhibition at 1 µM was 85%. Further, the EC50 in the experiment with RBL2H3 cells (setting [3]) was found to be 280 nM.
Turning to `O=c1[nH]ncc2nc(N3CCCCCC3)nc(Nc3ccc(CCN4CCC(O)CC4)cc3)c12` [Example 201, 2-(azepan-1-yl)-4-((4-(2-(4-hydroxypiperidin-1-yl)ethyl)phenyl)amino)pyrimido[4,5-d]pyridazin-5(6H)-one], the IC50 (on JAK2; in experiment [1]) was less than 10 nM in each case. In the experiment with RBL2H3 cells (setting [2]), the inhibition at 1 µM came out at 88%. Further, in the experiment on RBL2H3 cells (setting [3]), the EC50 came out at 31 nM.
Consider `CC(C)(CO)N1CCN(c2ccc(Nc3nc(N4CCCCCC4)nc4cn[nH]c(=O)c34)cc2)CC1` [Example 265, 2-(azepan-1-yl)-4-((4-(4-(1-hydroxy-2-methylpropan-2-yl)piperazin-1-yl)phenyl)amino)pyrimido[4,5-d]pyridazin-5(6H)-one], for which the IC50 (at JAK2; in experiment [1]) was less than 10 nM throughout. Besides, the inhibition at 1 µM with RBL2H3 cells (setting [2]) amounted to 79%. Further, the EC50 in the experiment with RBL2H3 cells (setting [3]) turned out to be 30 nM.
On to `O=c1[nH]ncc2nc(N3CCCCCC3)nc(Nc3ccc(OCCN4CCOCC4)cc3)c12` [Example 93, 2-(azepan-1-yl)-4-((4-(2-morpholinoethoxy)phenyl)amino) pyrimido[4,5-d]pyridazin-5(6H)-one], for which the IC50 (on JAK2; in experiment [1]) was less than 50 nM in each case. Further, the inhibition at 1 µM in the experiment with RBL2H3 cells (setting [2]) worked out at 49%.
Take `CC1CCN(c2nc(Nc3ccc(N4CCC5(CC4)CC5C(=O)O)cc3)c3c(=O)[nH]ncc3n2)CC1` (stereo not shown) [Example 155, 6-(4-((2-(4-methylpiperidin-1-yl)-5-oxo-5,6-dihydropyrimido[4,5-d]pyridazin-4-yl)amino)phenyl)-6-azaspiro[2.5]octane-1-carboxylic acid]: the IC50 (at JAK2; in experiment [1]) was less than 50 nM each time. In the experiment with RBL2H3 cells (setting [3]), the EC50 is 27 nM.
For the compound `N#CCC1CCN(c2nc(Nc3ccc(N4CCN(CCCO)CC4)cc3)c3c(=O)[nH]ncc3n2)CC1` [Example 261, 2-(1-(4-((4-(4-(3-hydroxypropyl)piperazin-1-yl)phenyl)amino)-5-oxo-5,6-dihydropyrimido[4,5-d]pyridazin-2-yl)piperidin-4-yl)acetonitrile], the IC50 on JAK2 was less than 50 nM; in experiment [1], less than 10 nM. The inhibition at 1 µM in the experiment on RBL2H3 cells (setting [2]) came out at 87%. For the same compound, the EC50 with RBL2H3 cells (setting [3]) amounted to 39 nM.
As to `O=c1[nH]ncc2nc(N3CCCCCC3)nc(Nc3ccc(N4CCC(Cc5nn[nH]n5)CC4)cc3)c12` [Example 244, 4-((4-(4-((2H-tetrazol-5-yl)methyl)piperidin-1-yl)phenyl)amino)-2-(azepan-1-yl)pyrimido[4,5-d]pyridazin-5(6H)-one], the IC50 (on JAK2; in experiment [1]) was less than 10 nM throughout. In the experiment on RBL2H3 cells (setting [2]), the inhibition at 1 µM stood at 23%. Further, in the experiment on RBL2H3 cells (setting [3]), the EC50 is 306 nM.
Take `O=c1[nH]ncc2nc(N3CCCCC3)nc(Nc3ccc(CN4CCNCC4)cc3)c12` [Example 30, 4-(4-(piperazin-1-ylmethyl)phenylamino)-2-(piperidin-1-yl)pyrimido[4,5-d]pyridazin-5(6H)-one hydrochloride]: the IC50 (on JAK2; in experiment [1]) was less than 50 nM in each case. In addition, in the experiment on RBL2H3 cells (setting [2]), the inhibition at 1 µM worked out at 99%.
Turning to `N#CCC1CCN(c2nc(Nc3ccc(N4CCC(CC(=O)O)CC4)cc3)c3c(=O)[nH]ncc3n2)CC1` [Example 71, 2-(1-(4-((2-(4-(cyanomethyl)piperidin-1-yl)-5-oxo-5,6-dihydropyrimido[4,5-d]pyridazin-4-yl)amino)phenyl)piperidin-4-yl)acetic acid], the IC50 (at JAK2; in experiment [1]) was greater than 100 nM throughout. The inhibition at 1 µM in the experiment on RBL2H3 cells (setting [2]) was 65%. In addition, the EC50 in the experiment on RBL2H3 cells (setting [3]) came to 1020 nM.
As for `N#CCC1CCN(c2nc(Nc3ccc(N4CCNCC4)cc3)c3c(=O)[nH]ncc3n2)CC1` [Example 193, 2-(1-(5-oxo-4-((4-(piperazin-1-yl)phenyl)amino)-5,6-dihydropyrimido[4,5-d]pyridazin-2-yl)piperidin-4-yl)acetonitrile], the IC50 (on JAK2; in experiment [1]) was less than 10 nM in each case. In addition, the inhibition at 1 µM with RBL2H3 cells (setting [2]) came to 93%. Besides, the EC50 in the experiment with RBL2H3 cells (setting [3]) was 17 nM.
For the compound `O=C(O)C1CC12CCN(CCOc1ccc(Nc3nc(N4CCCCCC4)nc4cn[nH]c(=O)c34)cc1)CC2` (stereo not shown) [Example 158, 6-(2-(4-((2-(azepan-1-yl)-5-oxo-5,6-dihydropyrimido[4,5-d]pyridazin-4-yl)amino)phenoxy)ethyl)-6-azaspiro[2.5]octane-1-carboxylic acid], the half-maximal inhibitory concentration (IC50) is less than 10 nM on JAK2 and less than 50 nM in experiment [1]. The inhibition at 1 µM with RBL2H3 cells (setting [2]) amounted to 53%. For the same compound, the EC50 in the experiment on RBL2H3 cells (setting [3]) is 162 nM.
The corresponding values for `NC(=O)CC1CCN(c2ccc(Nc3nc(N4CCCCCC4)nc4cn[nH]c(=O)c34)cn2)CC1` [Example 99, 2-(1-(5-((2-(azepan-1-yl)-5-oxo-5,6-dihydropyrimido[4,5-d]pyridazin-4-yl)amino)pyridin-2-yl)piperidin-4-yl) acetamide] are less than 50 nM, less than 10 nM, 94% and 44 nM.
On to `O=c1[nH]ncc2nc(N3CCCCCC3)nc(Nc3ccc(N4CCC(O)CC4)cc3)c12` [Example 186, 2-(azepan-1-yl)-4-((4-(4-hydroxypiperidin-1-yl)phenyl)amino) pyrimido[4,5-d]pyridazin-5(6H)-one], for which the IC50 is less than 100 nM on JAK2 and less than 10 nM in experiment [1]. The inhibition at 1 µM in the experiment with RBL2H3 cells (setting [2]) was determined as 93%. Moreover, the EC50 with RBL2H3 cells (setting [3]) is 10 nM.
The corresponding values for `CC1(O)CCN(CCOc2ccc(Nc3nc(N4CCC(CC#N)CC4)nc4cn[nH]c(=O)c34)cc2)CC1` [Example 185, 2-(1-(4-((4-(2-(4-hydroxy-4-methylpiperidin-1-yl)ethoxy)phenyl)amino)-5-oxo-5,6-dihydropyrimido[4,5-d]pyridazin-2-yl)piperidin-4-yl)acetonitrile] are less than 50 nM, less than 10 nM, 83% and 29 nM.
The corresponding values for `N#CCC1CCN(c2nc(Nc3ccc(N4CCN(CC(=O)O)CC4)cc3)c3c(=O)[nH]ncc3n2)CC1` [Example 162, 2-(4-(4-((2-(4-(cyanomethyl)piperidin-1-yl)-5-oxo-5,6-dihydropyrimido[4,5-d]pyridazin-4-yl)amino)phenyl)piperazin-1-yl)acetic acid] are less than 10 nM, less than 10 nM, 27% and 281 nM.
In the case of `CN1CCN(CCOc2ccc(Nc3nc(N4CCCCCC4)nc4cn[nH]c(=O)c34)cc2)CC1` [Example 95, 2-(azepan-1-yl)-4-((4-(2-(4-methylpiperazin-1-yl)ethoxy)phenyl)amino)pyrimido[4,5-d]pyridazin-5(6H)-one], the IC50 (at JAK2; in experiment [1]) was less than 50 nM in each case. The inhibition at 1 µM with RBL2H3 cells (setting [2]) stood at 35%.

For orientation: IC50 means the concentration at which inhibition is half-maximal. In general, inhibition refers to the relative decrease from the control value, in per cent. The term EC50 denotes the concentration needed to bring the measured effect to its halfway point.
